Earlier results, collected in patent publication US20230270709A1, “ANTIVIRAL PHARMACEUTICAL COMPOSITION FOR TOPICAL ADMINISTRATION” (Christian-Albrechts-Universitat Zu Kiel, priority 2020, published 2023).
Where a name gives a salt, the structure may show the parent alone.

Columns and labels:
SARS-CoV-2 = settings: Hoffmann et al. 2020
SARS-CoV = settings: pathogenic animal model for SARS-CoV infection; Zhou et al. 2015
[1] = molecular target: transmembrane protease, serine 2 (TMPRSS2) (Homo sapiens, UniProt O15393); settings: Zhou et al., Antiviral Research 116 (2015)
Sequence of transmembrane protease, serine 2 (TMPRSS2) (O15393 whole entry): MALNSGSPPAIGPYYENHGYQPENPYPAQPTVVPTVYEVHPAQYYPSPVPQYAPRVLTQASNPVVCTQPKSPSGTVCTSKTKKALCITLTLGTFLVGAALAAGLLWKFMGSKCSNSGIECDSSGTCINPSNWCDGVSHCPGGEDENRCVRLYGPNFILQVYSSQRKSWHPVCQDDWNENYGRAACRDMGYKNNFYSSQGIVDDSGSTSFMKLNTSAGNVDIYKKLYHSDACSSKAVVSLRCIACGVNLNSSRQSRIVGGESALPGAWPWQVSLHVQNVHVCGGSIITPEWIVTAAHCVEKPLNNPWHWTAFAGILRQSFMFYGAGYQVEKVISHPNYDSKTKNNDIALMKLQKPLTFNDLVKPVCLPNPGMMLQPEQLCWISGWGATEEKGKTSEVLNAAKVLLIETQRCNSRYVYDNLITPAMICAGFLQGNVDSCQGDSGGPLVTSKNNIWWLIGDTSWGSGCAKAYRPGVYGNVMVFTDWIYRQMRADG

CN(C)C(=O)COC(=O)Cc1ccc(OC(=O)c2ccc(NC(=N)N)cc2)cc1 [camostat mesylate]
effect on SARS-CoV-2 infections of lung cells (SARS-CoV-2): reduce SARS-CoV-2 infections of lung cells

CN(C)C(=O)COC(=O)Cc1ccc(OC(=O)c2ccc(NC(=N)N)cc2)cc1 [camostat]
antiviral activity in animal model (SARS-CoV): display antiviral activity | inhibition of TMPRSS2 [1]: inhibit

N=C(N)c1ccc2cc(OC(=O)c3ccc(N=C(N)N)cc3)ccc2c1 [nafamostat mesylate]
effect on SARS-CoV-2 infections of lung cells (SARS-CoV-2): reduce SARS-CoV-2 infections of lung cells
